Laboratory results reported in publication PMC8321398, “The discovery of a novel series of compounds with single-dose efficacy against juvenile and adult Schistosoma species” (PLoS Neglected Tropical Diseases, 2021).

Experiments:
[1] = Binding in the assay medium; format: in vitro ADME
Text: (§1) These early experiments also allowed us to use the PK Tool to predict the dose to use in the mouse efficacy models. As part of the prediction we need to recognise that the measured in vitro potency will be different from that in whole blood. […] They also display high protein binding in plasma, assay media and microsomal stability assays. […] Measurement of binding of LSHTM-3520 in the assay medium gave a free fraction, Fu of 0.0014. An experiment was run using LSHTM-3520 to determine whether the potency shift on varying the plasma protein level in the in vitro assay accords with prediction.

S. mansoni worms = assay: In vitro potency assay with varied FBS level; format: cell-based; conditions: Schistosoma mansoni
Text: as §1

[2] = test system: panel of 38 in vitro toxicity targets (receptors, channels, transporters); assay: Broad selectivity panel (Cerep), radioligand receptor binding assays; conditions: 1uM
Description: Selectivity was assessed at Cerep (Celle l’ Evescault, France), as described in the Cerep catalog, against a panel of in vitro radioligand receptor binding assays with 38 different receptors, channels, and transporters selected as targets to avoid for safety reasons (beta 1, beta 2, NMDA, MAO-A, 5-HT1B, CCK1 (CCKA), BZD (central), delta (DOP), A2A, CB1, CB2, D1, D2S, ETA, H1, H2, M1, M2, M3, 5-HT1A, 5-HT2A, 5-HT2B, 5-HT3, GR, AR, V1a, kappa (KOP), mu (MOP), alpha 1A, alpha 2A, Ca2+ channel, Potassium Channel, Kv channel, Na+ channel, N neuronal alpha 4 beta 2, norepinephrine transporter, dopamine transporter, 5-HT transporter). The specific ligand binding to the receptors is defined as the difference between the total binding, and the nonspecific binding determined in the presence of an excess of unlabelled ligand.

Row | fraction unbound ([1]; bovine, assay medium of the in vitro potency assay, read-out: free fraction, Fu) | recovery ([1]; bovine, in vitro potency assay medium with Foetal Bovine Serum, in vitro assay medium) [%] | Assay medium %binding ([1]; in vitro assay medium) [%] | EC50 (S. mansoni worms; 3% FBS) [nM] | EC50 (S. mansoni worms; 10% FBS) [nM] | EC50 (S. mansoni worms; 30% FBS) [nM] | Compound | activity against panel of 38 in vitro toxicity targets [2]
1 | 0.0014 | 69.3 | 99.86 | 8 | 24.4 | 75 | CC(C)c1nc2cnc(-c3ccc(F)c(C(F)(F)F)c3)cn2c1-c1c(F)cc(O)cc1F [LSHTM-3520] | 
2 |  |  |  |  |  |  | Fc1ccc(-c2cn3c(-c4ccc5[nH]ncc5c4F)c(C(F)(F)F)nc3cn2)cc1C(F)(F)C(F)(F)F [LSHTM-3645] | no reproduceable activity
